Measured values taken from US9321756B2, “Azole compounds as PIM inhibitors” (priority 2011, dated 2016).
Where two headings read alike, the source gives them in different places.

Legend:
[1] = system: Pim-2 stably transfected U2OS human osteogenic sarcoma line; test: Pim cell assay U2OS (phospho-BAD normalized against total BAD), Pim-2 transfected; type: cell-based; conditions: Homo sapiens, read-out: U2OS Pim2_Cell_IC50
[2] = system: Pim-1 stably transfected U2OS human osteogenic sarcoma line; test: Pim cell assay U2OS (phospho-BAD normalized against total BAD), Pim-1 transfected; type: cell-based; conditions: Homo sapiens, U2OS
[3] = target: full length recombinant Pim-1 (Homo sapiens (Human), UniProt P11309); test: Pim enzyme assay (HTRF, phosphorylation of biotinylated-BAD (S112) peptide), Pim-1; type: biochemical
Chain of full length recombinant Pim-1 (P11309 whole entry): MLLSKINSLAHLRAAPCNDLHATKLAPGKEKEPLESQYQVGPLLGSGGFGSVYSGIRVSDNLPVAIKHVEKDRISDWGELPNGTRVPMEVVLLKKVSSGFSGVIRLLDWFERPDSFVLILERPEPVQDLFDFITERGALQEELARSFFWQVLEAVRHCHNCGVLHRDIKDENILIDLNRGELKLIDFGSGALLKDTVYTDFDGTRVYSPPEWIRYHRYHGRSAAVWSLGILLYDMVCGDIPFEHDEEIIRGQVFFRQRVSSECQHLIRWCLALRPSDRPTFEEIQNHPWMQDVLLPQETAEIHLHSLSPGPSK

[4] = target: full length recombinant Pim-3 (Homo sapiens (Human), UniProt Q86V86); test: Pim enzyme assay (HTRF, phosphorylation of biotinylated-BAD (S112) peptide), Pim-3; type: biochemical; conditions: Pim-3 enzyme assay; read-out: Pim3 IC50
Method in brief: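 IC50 values were fitted with a 4-parameter logistic model to percent-of-control HTRF signal (Eu anti-phospho-BAD S112 antibody/streptavidin-APC). Reactions used full-length Pim-3 and biotin-BAD (S112) peptide, ran 1 h 30 min at RT (22 °C) in Hepes pH 7.0 buffer with BSA and DTT, and were stopped by 3 mM EDTA.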

[5] = target: full length recombinant Pim-2 (Homo sapiens (Human), UniProt Q9P1W9); test: Pim enzyme assay (HTRF, phosphorylation of biotinylated-BAD (S112) peptide), Pim-2; type: biochemical; conditions: Pim-2 enzyme assay; read-out: Pim2_IC50
Chain of full length recombinant Pim-2 (Q9P1W9 whole entry): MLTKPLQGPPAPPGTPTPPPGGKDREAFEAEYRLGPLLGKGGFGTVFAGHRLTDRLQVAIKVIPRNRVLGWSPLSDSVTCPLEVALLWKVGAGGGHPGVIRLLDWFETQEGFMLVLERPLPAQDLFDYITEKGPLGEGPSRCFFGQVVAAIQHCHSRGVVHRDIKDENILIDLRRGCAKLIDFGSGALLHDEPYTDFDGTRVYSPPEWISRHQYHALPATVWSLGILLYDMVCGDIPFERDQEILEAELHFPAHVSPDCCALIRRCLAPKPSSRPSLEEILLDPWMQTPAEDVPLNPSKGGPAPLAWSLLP

[6] = read-out: U2OS Pim1_Cell_IC50, U2OS cells, Pim-1 transfected
[7] = Pim-1 enzyme assay, read-out: Pim_1_IC50

SMILES	IC50 ([1]; U2OS) [nM]	IC50 ([2]; read-out: U2OS Pim1_Cell_IC50) [nM]	IC50 [3] [nM]	IC50 [4] [nM]	IC50 [5] [nM]	IC50 ([1]; U2OS cells, Pim-2 transfected) [nM]	IC50 [2, 6] [nM]	IC50 [3, 7] [nM]
CNc1nnc(-c2ccc3[nH]cc(-c4cncc(N(C)C)n4)c3c2)s1 [Example 231, N,N-dimethyl-6-(5-(5-(methylamino)-1,3,4-thiadiazol-2-yl)-1H-indol-3-yl)-2-pyrazinamine]	> 31600	377	38.2	9.89	137	–	–	–
CC1CCCCN1c1cncc(-c2c[nH]c3ccc(-c4nnc(N)o4)cc23)n1 (stereo not drawn) [Example 1, 5-(3-(6-(2-methylpiperidin-1-yl)pyrazin-2-yl)-1H-indol-5-yl)-1,3,4-oxadiazol-2-amine]	–	–	–	1.06	2.06	435	11.9	0.714
Nc1nnc(-c2ccc3[nH]cc(-c4cncc(N5CCC(F)(F)C5)n4)c3c2)o1 [Example 88, 5-(3-(6-(3,3-difluoro-1-pyrrolidinyl)-2-pyrazinyl)-1H-indol-5-yl)-1,3,4-oxadiazol-2-amine]	–	40.7	–	1.6	6.43	464	–	1.92
CC1CCCN1c1ccnc(-c2c[nH]c3ccc(-c4nnc(N)o4)cc23)n1 (stereo not drawn) [Example 97, 5-(3-(4-(2-methyl-1-pyrrolidinyl)-2-pyrimidinyl)-1H-indol-5-yl)-1,3,4-oxadiazol-2-amine]	–	100	–	1.22	1.7	315	–	6.42
CN(C)[C@H]1CCCN(c2ccnc(-c3c[nH]c4ccc(-c5nnc(N)o5)cc34)n2)C1 (stereo in doubt) [Example 107, 1-(2-(5-(5-amino-1,3,4-oxadiazol-2-yl)-1H-indol-3-yl)-4-pyrimidinyl)-N,N-dimethyl-3-piperidinamine]	–	3860	–	3.74	3.24	> 31600	–	5.98
CC(C)Oc1cccc(-c2c[nH]c3ccc(-c4nnc(N)o4)cc23)n1 [Example 87, 5-(3-(6-(1-methylethoxy)-2-pyridinyl)-1H-indol-5-yl)-1,3,4-oxadiazol-2-amine]	–	45.1	–	1.11	5.46	823	–	4.15
COc1cc(-c2c[nH]c3ccc(-c4nnc(N)s4)cc23)nc(OC)n1 [Example 202, 5-(3-(2,6-dimethoxy-4-pyrimidinyl)-1H-indol-5-yl)-1,3,4-thiadiazol-2-amine]	> 31600	238	73.2	11.1	87.5	–	–	–
c1cc(-c2c[nH]c3ccc(-c4nncs4)cc23)nc(N2CCOCC2)c1 [Example 28, 4-(6-(5-(1,3,4-thiadiazol-2-yl)-1H-indol-3-yl)pyridin-2-yl)morpholine]	–	1070	–	27	157	> 31600	–	40.7
Nc1nnc(-c2ccc3[nH]cc(-c4cncc(N5CCCCC5)n4)c3c2)s1 [Example 198, 5-(3-(6-(1-piperidinyl)-2-pyrazinyl)-1H-indol-5-yl)-1,3,4-thiadiazol-2-amine]	–	–	–	2.79	10.9	1720	36.9	2.51
Nc1nnc(-c2ccc3[nH]cc(-c4cccc(N5CCOCC5)n4)c3c2)o1 [Example 6, 5-(3-(6-morpholinopyridin-2-yl)-1H-indol-5-yl)-1,3,4-oxadiazol-2-amine]	–	–	–	5.74	20.8	2110	61.9	5.91
Nc1nnc(-c2ccc3[nH]cc(-c4cncc(NCC5CC5)n4)c3c2)o1 [Example 100, 6-(5-(5-amino-1,3,4-oxadiazol-2-yl)-1H-indol-3-yl)-N-(cyclopropylmethyl)-2-pyrazinamine]	–	41.7	–	0.668	2.07	551	–	1.16
COc1cncc(-c2c[nH]c3ccc(-c4nnc(N)s4)cc23)n1 [Example 212, 5-(3-(6-methoxy-2-pyrazinyl)-1H-indol-5-yl)-1,3,4-thiadiazol-2-amine]	–	177	–	14.9	30.2	> 31600	–	38.3
CC1CCCCN1c1ccnc(-c2c[nH]c3ccc(-c4nnc(N)o4)cc23)n1 (stereo not drawn) [Example 3, 5-(3-(4-(2-methylpiperidin-1-yl)pyrimidin-2-yl)-1H-indol-5-yl)-1,3,4-oxadiazol-2-amine]	–	54.6	–	0.974	2.19	235	–	5.95
CCCOc1cccc(-c2c[nH]c3ccc(-c4nnc(N)s4)cc23)n1 [Example 165, 5-(3-(6-propoxy-2-pyridinyl)-1H-indol-5-yl)-1,3,4-thiadiazol-2-amine]	–	231	–	5.73	35.3	4230	–	15.2
CC(C)Oc1ccc(F)c(-c2c[nH]c3ccc(-c4nnc(N)o4)cc23)c1 [Example 83, 5-(3-(2-fluoro-5-(1-methylethoxy)phenyl)-1H-indol-5-yl)-1,3,4-oxadiazol-2-amine]	–	–	–	36.2	193	18500	725	59.3
CSc1nnc(-c2ccc3[nH]cc(-c4cccc(N5CCOCC5)n4)c3c2)s1 [Example 243, 5-(5-(methylsulfanyl)-1,3,4-thiadiazol-2-yl)-3-(6-(4-morpholinyl)-2-pyridinyl)-1H-indole]	–	–	–	85.2	2820	> 31600	6330	223
CN1CCN(c2cccc(-c3c[nH]c4ccc(-c5nnc(N)o5)cc34)n2)CC1 [Example 75, 5-(3-(6-(4-methyl-1-piperazinyl)-2-pyridinyl)-1H-indol-5-yl)-1,3,4-oxadiazol-2-amine]	–	173	–	2.54	6.87	2350	–	3.82
CC1CCCCN1c1cncc(-c2c[nH]c3ccc(-c4nnc(N)s4)cc23)n1 (stereo not drawn) [Example 153, 5-(3-(6-(2-methyl-1-piperidinyl)-2-pyrazinyl)-1H-indol-5-yl)-1,3,4-thiadiazol-2-amine]	–	51.9	1.77	1.7	9.74	1660	–	–
c1cc2[nH]cc(-c3cncc(C4CC4)n3)c2cc1-c1nnc(NC2CNC2)o1 [Example 247, N-3-azetidinyl-5-(3-(6-cyclopropyl-2-pyrazinyl)-1H-indol-5-yl)-1,3,4-oxadiazol-2-amine]	–	1940	–	0.346	1.05	> 31600	–	1.34
C[C@H]1CCCCN1c1cccc(-c2c[nH]c3ccc(-c4nnc(N)s4)cc23)n1 (stereo in doubt) [Example 167, 5-(3-(6-(2-methyl-1-piperidinyl)-2-pyridinyl)-1H-indol-5-yl)-1,3,4-thiadiazol-2-amine]	–	421	–	5.87	64.4	25000	–	19
CNc1nnc(-c2ccc3[nH]cc(-c4cncc(N5CCCCC5)n4)c3c2)s1 [Example 227, N-methyl-5-(3-(6-(1-piperidinyl)-2-pyrazinyl)-1H-indol-5-yl)-1,3,4-thiadiazol-2-amine]	–	121	–	1.42	41	9950	–	5.07
CNc1nnc(-c2ccc3[nH]cc(-c4ccc5c(c4)OC(C)(C)C5)c3c2)s1 [Example 216, 5-(3-(2,2-dimethyl-2,3-dihydro-1-benzofuran-6-yl)-1H-indol-5-yl)-N-methyl-1,3,4-thiadiazol-2-amine]	–	1770	–	91.5	1840	> 31600	–	187
Nc1nnc(-c2ccc3[nH]cc(-c4cncc(C5CC5)n4)c3c2)o1 [Example 98, 5-(3-(6-cyclopropyl-2-pyrazinyl)-1H-indol-5-yl)-1,3,4-oxadiazol-2-amine]	–	85.7	–	1.59	4.85	721	–	4.34
CN(C)c1cncc(-c2c[nH]c3ccc(-c4nnc(N)s4)cc23)n1 [Example 158, 6-(5-(5-amino-1,3,4-thiadiazol-2-yl)-1H-indol-3-yl)-N,N-dimethyl-2-pyrazinamine]	–	–	–	3.86	28.2	3040	133	8.18
Nc1nnc(-c2ccc3[nH]cc(-c4ccccc4F)c3c2)s1 [Example 136, 5-(3-(2-fluorophenyl)-1H-indol-5-yl)-1,3,4-thiadiazol-2-amine]	–	–	–	30.9	60	> 31600	3410	67.3
CNc1nnc(-c2ccc3[nH]cc(-c4nccc(N5CCOCC5)n4)c3c2)s1 [Example 134, N-methyl-5-(3-(4-(4-morpholinyl)-2-pyrimidinyl)-1H-indol-5-yl)-1,3,4-thiadiazol-2-amine]	–	–	–	12.3	16.3	6110	1440	38
CNc1nnc(-c2ccc3[nH]cc(-c4nccc(N5CCN(C)CC5)n4)c3c2)s1 [Example 132, N-methyl-5-(3-(4-(4-methyl-1-piperazinyl)-2-pyrimidinyl)-1H-indol-5-yl)-1,3,4-thiadiazol-2-amine]	–	1470	–	3.98	33.6	6910	–	11
